Results: patent US11518764B2, “Substituted heteroaryls as inhibitors of the BCL6 BTB domain protein-protein interaction” (Ontario Institute for Cancer Research (OICR), priority 2018, dated 2022)

Assays:
[1] = system: BCL6 reporter construct (3xBCL6-TK-Luc) in SuDHL4 cells; experiment: Cell-based luciferase assay; details: Homo sapiens, SU-DHL-4, 48 h, read-out: Luciferase-Assay EC50, uM), SuDHL4-3xBCL6-TK-Luc cells, two days, high dose 10 uM
Summary of the method: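 SuDHL4 cells stably carrying a 3×BCL6-site TK-promoter firefly luciferase reporter, seeded at 15,000 cells/well, were dosed over a 10-point range (top 10 uM) and grown two days at 37 °C, 5% CO2. Luminescence then read after adding neolite reagent at room temperature.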

BCL6 BTB domain = BCL6 BTB domain (Homo sapiens (Human), UniProt P41182); experiment: Surface plasmon resonance (SPR) assay; assay type: binding; details: BCL6 BTB domain captured on SA chip, single cycle kinetics
Karpas422 cells = experiment: Tumor cell growth inhibition assay; assay type: cell-based; details: Homo sapiens, KARPAS-422, 144 h, read-out: Tumor Growth Inhibition in Karpas-422 (IC50, uM), Karpas422 cells, six days, ATPlite
Summary of the method: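 Karpas422 cells (2,000/well) in Alpha-MEM with 10% FBS dosed across 10 concentrations (top 5 uM) and grown six days at 37° C., 5% CO2. Viability read as ATPlite luminescence.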

Row | SMILES | EC50 [1] [µM] | Kd (BCL6 BTB domain) [nM] | IC50 (Karpas422 cells) [µM]
1 | COCCN1CCN(c2cc(NC(=O)Cn3cc(-c4cc(F)c(O)c(C(N)=O)c4)c4c(=O)n(C)cnc43)c(Cl)c(F)n2)[C@@H](C)C1 [Compound I-448] | 0.0483 | 3.42 | 0.0446
2 | CN1CC2CC(C1)N2c1cc(NC(=O)Cn2cc(-c3cc(Cl)c(O)c(C(N)=O)c3)c3c(=O)n(C)cnc32)c(Cl)cn1 [Compound I-449] | 2.48 | 60.3 | 1.97
3 | C[C@H]1CN(CCO)CCN1c1cc(NC(=O)Cn2cc(-c3cc(C(N)=O)c(O)c(F)c3F)c3c(=O)n(C)cnc32)c(Cl)cn1 [Compound I-452, (S)-5-(7-(2-((5-chloro-2-(4-(2-hydroxyethyl)-2-methylpiperazin-1-yl)pyridin-4-yl)amino)-2-oxoethyl)-3-methyl-4-oxo-4,7-dihydro-3H-pyrrolo[2,3-d]pyrimidin-5-yl)-3,4-difluoro-2-hydroxybenzamide] | 2.6 | 13.6 | 1.52
4 | C[C@H]1CN(CCC(F)(F)F)CCN1c1cc(NC(=O)Cn2cc(-c3cc(C(N)=O)c(O)c(F)c3F)c3c(=O)n(C)cnc32)c(Cl)cn1 [Compound I-453] | 0.41 | 54.3 | 0.16
5 | C[C@@H](C1CC1)N1CCN(c2cc(NC(=O)Cn3cc(-c4cc(C(N)=O)c(O)c(F)c4F)c4c(=O)n(C)cnc43)c(Cl)c(F)n2)[C@@H](C)C1 [Compound I-454] | 0.306 | 13.5 | 0.244
6 | C[C@H](C1CC1)N1CCN(c2cc(NC(=O)Cn3cc(-c4cc(C(N)=O)c(O)c(F)c4F)c4c(=O)n(C)cnc43)c(Cl)c(F)n2)[C@@H](C)C1 [Compound I-455] | 0.307 | 11.2 | 0.204
7 | CC1N=CC(C#CCn2cnc3c(c(-c4cc(C(N)=O)c(O)c(F)c4F)cn3CC(=O)Nc3cc(N4CCN(C)C[C@@H]4C)nc(F)c3Cl)c2=O)=N1 (stereo partly drawn) [Compound I-456] | 0.0858 | 1.87 | 0.0554
8 | C[C@H]1COCCN1c1cc(NC(=O)Cn2cc(-c3cc(F)c(O)c(C(N)=O)c3)c3c(=O)n(CC#Cc4cnn(C)c4)cnc32)c(Cl)cn1 [Compound I-457] | 0.328 | 13.1 | 0.183
9 | CC(C)CN1CCN(c2cc(NC(=O)Cn3cc(-c4cc(C(N)=O)c(O)c(F)c4F)c4c(=O)n(C)cnc43)c(Cl)c(F)n2)[C@@H](C)C1 [Compound I-458] | 0.963 | 55.8 | 3.68
10 | C[C@H]1CN(CC(O)CCO)CCN1c1cc(NC(=O)Cn2cc(-c3cc(C(N)=O)c(O)c(F)c3F)c3c(=O)n(C)cnc32)c(Cl)c(F)n1 (stereo partly drawn) [Compound I-459, 5-(7-(2-((3-chloro-6-((2S)-4-(2,4-dihydroxybutyl)-2-methylpiperazin-1-yl)-2-fluoropyridin-4-yl)amino)-2-oxoethyl)-3-methyl-4-oxo-4,7-dihydro-3H-pyrrolo[2,3-d]pyrimidin-5-yl)-3,4-difluoro-2-hydroxybenzamide] | 0.945 | 6.55 | 1.06
11 | C[C@H]1CN(CC2CCO2)CCN1c1cc(NC(=O)Cn2cc(-c3cc(C(N)=O)c(O)c(F)c3F)c3c(=O)n(C)cnc32)c(Cl)c(F)n1 (stereo partly drawn) [Compound I-460, 5-(7-(2-((3-chloro-2-fluoro-6-((2S)-2-methyl-4-(oxetan-2-ylmethyl)piperazin-1-yl)pyridin-4-yl)amino)-2-oxoethyl)-3-methyl-4-oxo-4,7-dihydro-3H-pyrrolo[2,3-d]pyrimidin-5-yl)-3,4-difluoro-2-hydroxybenzamide] | 0.102 | 9.87 | 0.223
12 | CO[C@@H](C)CN1CCN(c2cc(NC(=O)Cn3cc(-c4cc(C(N)=O)c(O)c(F)c4F)c4c(=O)n(C)cnc43)c(Cl)c(F)n2)[C@@H](C)C1 [Compound I-462] | 0.184 | 50.3 | 0.289
13 | C[C@H]1CN(CC(CO)CO)CCN1c1cc(NC(=O)Cn2cc(-c3cc(C(N)=O)c(O)c(F)c3F)c3c(=O)n(C)cnc32)c(Cl)c(F)n1 [Compound I-463, (S)-5-(7-(2-((3-chloro-2-fluoro-6-(4-(3-hydroxy-2-(hydroxymethyl)propyl)-2-methylpiperazin-1-yl)pyridin-4-yl)amino)-2-oxoethyl)-3-methyl-4-oxo-4,7-dihydro-3H-pyrrolo[2,3-d]pyrimidin-5-yl)-3,4-difluoro-2-hydroxybenzamide] | 3.53 | 8.56 | 1.28
14 | C[C@H]1CN(CCC(F)(F)F)CCN1c1cc(NC(=O)Cn2cc(-c3cc(C(N)=O)c(O)c(F)c3F)c3c(=O)n(C)cnc32)c(Cl)c(F)n1 [Compound I-464] | 0.213 | 83.8 | 0.421
15 | Cn1cnc2c(c(-c3cc(C(N)=O)c(O)c(F)c3F)cn2CC(=O)Nc2cc(N3C4CCC3CN(CC(F)(F)F)C4)ncc2Cl)c1=O [Compound I-465] | 4.47 | 84.9 | 1.17
16 | Cn1cnc2c(c(-c3cc(Cl)c(O)c(C(N)=O)c3)cn2CC(=O)Nc2cc(N3C4CCC3CN(CC(F)(F)F)C4)ncc2Cl)c1=O [Compound I-466] | 3.81 | 519 | 0.773
17 | Cn1cnc2c(c(-c3cc(F)c(O)c(C(N)=O)c3)cn2CC(=O)Nc2cc(N3C4CCC3CN(CC(F)(F)F)C4)ncc2Cl)c1=O [Compound I-467] | 1.23 | 175 | 0.496
18 | Cn1cnc2c(c(-c3cc(C(N)=O)c(O)c(F)c3F)cn2CC(=O)Nc2cc(N3Cc4ccncc4C3)ncc2Cl)c1=O [Compound I-468] | 0.461 | 23.5 | 0.417
19 | C[C@H]1CN(CC(F)F)CCN1c1cc(NC(=O)Cn2cc(-c3cc(C(N)=O)c(O)c(F)c3F)c3c(=O)n(C)cnc32)c(Cl)c(F)n1 [Compound I-469] | 0.141 | 35.5 | 0.153
20 | C[C@H]1COCCN1c1cc(NC(=O)Cn2cc(-c3cc(F)c(O)c(C(N)=O)c3F)c3c(=O)n(C)cnc32)c(Cl)c(F)n1 [Compound I-472] | 3.8 | 55.7 | 10
21 | Cn1cnc2c(c(-c3cc(Cl)c(O)c(C(N)=O)c3)cn2CC(=O)Nc2cc(N3C[C@H]4CC[C@@H](C3)N4CC(F)(F)F)ncc2Cl)c1=O [Compound I-474] | 0.216 | 35.8 | 0.237
22 | Cn1cnc2c(c(-c3cc(C(N)=O)c(O)c(F)c3F)cn2CC(=O)Nc2cc(N3C[C@H]4CC[C@@H](C3)N4CC(F)(F)F)ncc2Cl)c1=O [Compound I-475] | 0.484 | 50.5 | 0.576
23 | Cn1cnc2c(c(-c3cc(F)c(O)c(C(N)=O)c3)cn2CC(=O)Nc2cc(N3C[C@H]4CC[C@@H](C3)N4CC(F)(F)F)ncc2Cl)c1=O [Compound I-476] | 0.159 | 13.7 | 0.118
24 | CN1CC2CCC(C1)N2c1cc(NC(=O)Cn2cc(-c3cc(F)c(O)c(C(N)=O)c3)c3c(=O)n(C)cnc32)c(Cl)cn1 [Compound I-477] | 0.328 | 10.1 | 0.272
25 | CN1CCN(c2cc(NC(=O)Cn3cc(-c4cc(F)c(O)c(C(N)=O)c4)c4c(=O)n(CC#Cc5cnn(C)c5)cnc43)c(Cl)cn2)CC1 [Compound I-478] | 0.366 | 4.58 | 0.182
26 | CN1CCC2(C1)CN(c1cc(NC(=O)Cn3cc(-c4cc(Cl)c(O)c(C(N)=O)c4)c4c(=O)n(C)cnc43)c(Cl)cn1)C2 [Compound I-479] | 1.43 | 16.2 | 0.778
27 | C[C@H]1CN(C)CCN1c1cc(NC(=O)Cn2cc(-c3cc(F)c(O)c(C(N)=O)c3)c3c(=O)n(CC#Cc4cnn(C)c4)cnc32)c(Cl)cn1 [Compound I-480] | 2.21 | 137 | 0.704
28 | Cn1cnc2c(c(-c3cc(C(N)=O)c(O)c(F)c3F)cn2CC(=O)Nc2cc(NCCCO)nc(F)c2Cl)c1=O [Compound I-481, 5-(7-(2-((3-chloro-2-fluoro-6-((3-hydroxypropyl)amino)pyridin-4-yl)amino)-2-oxoethyl)-3-methyl-4-oxo-4,7-dihydro-3H-pyrrolo[2,3-d]pyrimidin-5-yl)-3,4-difluoro-2-hydroxybenzamide] | 19.4 | 19.2 | 10
29 | CN1CC2(CCN(c3cc(NC(=O)Cn4cc(-c5cc(Cl)c(O)c(C(N)=O)c5)c5c(=O)n(C)cnc54)c(Cl)cn3)C2)C1 [Compound I-482] | 4.69 | 34.3 | 2.32
